In BindingDB's records for doi:10.7270/Q2BZ64GK (Burnham Center For Chemical Genomics, 2009):

Target: T1, Tyrosine-protein phosphatase non-receptor type 22 (Homo sapiens, UniProt Q9Y2R2)
T1 sequence (Q9Y2R2 whole entry): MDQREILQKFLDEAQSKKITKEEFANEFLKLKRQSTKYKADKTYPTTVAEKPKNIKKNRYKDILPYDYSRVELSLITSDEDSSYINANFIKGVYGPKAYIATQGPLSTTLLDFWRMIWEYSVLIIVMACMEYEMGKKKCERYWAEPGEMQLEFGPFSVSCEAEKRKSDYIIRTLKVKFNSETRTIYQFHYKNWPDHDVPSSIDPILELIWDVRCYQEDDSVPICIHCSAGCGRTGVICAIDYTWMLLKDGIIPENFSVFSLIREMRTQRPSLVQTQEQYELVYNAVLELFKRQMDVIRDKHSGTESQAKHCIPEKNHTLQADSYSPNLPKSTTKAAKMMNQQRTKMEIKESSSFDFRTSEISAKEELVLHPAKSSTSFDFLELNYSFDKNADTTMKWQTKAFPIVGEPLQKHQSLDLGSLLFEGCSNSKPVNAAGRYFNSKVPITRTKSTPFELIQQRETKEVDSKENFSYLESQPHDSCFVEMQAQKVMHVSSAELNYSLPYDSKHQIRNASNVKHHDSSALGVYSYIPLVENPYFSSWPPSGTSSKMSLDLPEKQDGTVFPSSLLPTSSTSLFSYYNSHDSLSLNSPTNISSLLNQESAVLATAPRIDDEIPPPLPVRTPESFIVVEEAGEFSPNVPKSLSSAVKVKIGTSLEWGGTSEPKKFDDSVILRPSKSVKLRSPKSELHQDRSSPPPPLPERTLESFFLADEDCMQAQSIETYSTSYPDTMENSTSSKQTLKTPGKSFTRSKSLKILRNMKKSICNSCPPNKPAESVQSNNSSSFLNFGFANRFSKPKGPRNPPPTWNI
Assay: PubChem AID 2135

IC50: > 100 µM
Compound: CCOc1ccc2nc(NC(=O)CSc3cc(O)c4c(C)c(C)sc4n3)sc2c1 [2-[(2,3-dimethyl-4-oxidanylidene-5H-thieno[2,3-b]pyridin-6-yl)sulfanyl]-N-(6-ethoxy-1,3-benzothiazol-2-yl)ethanamide]
